Consider six molecules from patent US20040076999A1, “Computer user interface facilitating acquiring and analyzing of biological specimen traits” (Baylor College of Medicine, priority 2002, published 2004).

One assay relates to flies. The note with it: administered orally to flies; cited from earlier work.
Assay [1] deals with Drosophila expressing a mutant form of human Huntington (HD). The assay can be described thus: Motion tracking with Drosophila model of Huntington disease. The note with it: HD flies with drug versus wt flies. The class given is in vivo. As for the experimental part:
(§1) Each movie is first scored individually to give one value per score and movie. A single movie is therefore considered to be the experimental base unit. Thereafter average values and standard errors for all scores are calculated from the movie score values for all repeats for a vial. Those averages and standard errors are the values shown in the PhenoScreen program. The data that is used in the scoring process are the trajectories of the corresponding movie. Each trajectory consists of a list of x- and y-coordinates of the position of the fly (and also size), with one list entry for every frame from when it starts moving in one frame until it stops in another.
Cross150: The Cross150 score is the number of trajectories that either crossed the line at x=150 in the negative x-direction (from bottom to top of the vial) during the movie, or that were already above that line at the start of the movie. […] In other words this score measures the number of detected flies that either managed to hold on to the tube or that managed to climb above the x=150 line within the length of the movie.
Drosophila expressing a mutant form of human Huntington (HD) have a functional deficit that is quantifiable, reproducible, and is suitable for automated high-throughput screening. Drosophila (or specimen) movements can be analyzed for various characteristics and/or traits. […]

The test system of the next assay is wild-type flies. Briefly: Motion tracking with wild-type flies. The class given is in vivo, Drosophila. The note with it: flies fed 0.1M or 0.05M LiCl, compared to controls; FIG. 32. As for the experimental part: as §1
Speed: The Speed score is calculated in the same way as the X-Speed score, but instead of only using the length of the x-component of the speed vector, the length of the whole vector is used. That is, [length]=square root of ([x-length]^2+[y-length]^2).
Turning: The Turning score is calculated in the same way as the Speed score, but instead of using the length of the speed vector, the absolute angle between the current speed vector and the previous one is used, giving a value between […].
Stumbling: The Stumbling score is calculated in the same way as the Speed score, but instead of using the length of the speed vector, the absolute angle between the current speed vector and the direction of body orientation is used, giving a value between 0 and 90 degrees.
Several sets of wild-type flies were assayed under various conditions to test the motion tracking software. Lithium Chloride (LiCl), a treatment for bipolar affective disorder in humans, is also known to induce behavioral changes in Drosophila (Xia et al., 1997). […] The results of this assay are shown in the bar graph of FIG. 32.

For another assay, the system named is Drosophila. The note with it: feeding Drosophila; cited from earlier work.

Consider `CC1(C)O[C@@H]2[C@@H](CO[C@@]3(COS(N)(=O)=O)OC(C)(C)O[C@@H]23)O1` [Topiramate], for which, in the assay on flies, the “mean recovery times following seizure” value is recorded as “reduce” and the seizure entry was “reduce”.

On to `CC(/C=C/C(=O)NO)=C\[C@@H](C)C(=O)c1ccc(N(C)C)cc1` [TSA], for which, in assay [1], the climbing ability entry is reported as “restore climbing ability for HD flies to almost the same level as for wt flies” and the “speed restored to wt level” value is “the same is not true for speed”.

Regarding `[Cl-].[Li+]` [LiCl, Lithium Chloride], in the assay on wild-type flies, the incidence of stumbling entry is recorded as “increase incidence”, the incidence of turning result is recorded as “increase incidence” and the speed result is listed as “significant reduction”.

Take 4-phenylbutyrate [PBA]: in the assay on Drosophila, the lifespan result was “significantly increase” and the locomotor vigor entry is on record as “without diminution”.

For `NCC1(CC(=O)O)CCCCC1` [Gabapentin], in the assay with flies, the “mean recovery times following seizure” value is given as “reduce” and the seizure result is reported as “reduce”.

On to `O=C1NC(=O)C(c2ccccc2)(c2ccccc2)N1` [Phenyloin], for which, in the assay on flies, the “mean recovery times following seizure” value is “reduce” and the seizure entry was “reduce”.
